Among the data in patent US20170107180A1, “GLYCOSIDASE INHIBITORS AND USES THEREOF” (Alectos Therapeutics Inc., priority 2012, published 2017) are Ki and Papp values, retold here.

Structures can show the parent of a compound that is named as a salt.

The first series deals with T1, human O-GlcNAcase (Homo sapiens, UniProt O60502).
T1 sequence (O60502 1-916): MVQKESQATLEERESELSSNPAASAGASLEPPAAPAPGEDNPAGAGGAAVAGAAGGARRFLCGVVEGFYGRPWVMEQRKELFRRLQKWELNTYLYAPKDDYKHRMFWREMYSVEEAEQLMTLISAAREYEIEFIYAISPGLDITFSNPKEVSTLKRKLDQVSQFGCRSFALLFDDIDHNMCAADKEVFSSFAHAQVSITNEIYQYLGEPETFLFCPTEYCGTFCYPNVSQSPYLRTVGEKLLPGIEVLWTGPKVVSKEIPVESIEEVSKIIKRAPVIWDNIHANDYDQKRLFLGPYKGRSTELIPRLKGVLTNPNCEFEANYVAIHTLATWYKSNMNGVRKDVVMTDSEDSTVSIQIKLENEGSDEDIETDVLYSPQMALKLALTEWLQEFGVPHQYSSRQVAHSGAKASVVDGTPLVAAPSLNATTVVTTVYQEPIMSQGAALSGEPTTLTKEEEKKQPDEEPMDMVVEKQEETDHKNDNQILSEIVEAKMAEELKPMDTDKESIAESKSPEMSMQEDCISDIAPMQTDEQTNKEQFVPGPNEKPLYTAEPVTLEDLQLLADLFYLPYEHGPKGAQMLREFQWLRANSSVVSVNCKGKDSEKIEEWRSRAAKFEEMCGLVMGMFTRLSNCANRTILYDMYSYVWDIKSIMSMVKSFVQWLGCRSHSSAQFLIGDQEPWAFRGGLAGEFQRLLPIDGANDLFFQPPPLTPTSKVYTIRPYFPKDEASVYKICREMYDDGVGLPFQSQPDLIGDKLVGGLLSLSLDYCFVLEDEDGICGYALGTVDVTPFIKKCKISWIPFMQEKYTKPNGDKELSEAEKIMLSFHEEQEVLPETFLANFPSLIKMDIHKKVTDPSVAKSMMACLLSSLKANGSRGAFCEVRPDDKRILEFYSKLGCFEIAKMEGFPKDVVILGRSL
The experiment in a line: Determination of KI values for inhibition of O-GlcNAcase activity (fluorescence-based hOGA Ki). To be noted: purified human O-GlcNAcase 0.7 nM, 2 mM 4-Methylumbelliferyl N-acetyl-β-D-glucosaminide, pH 7.0, Cheng-Prusoff. The class given is biochemical. On the procedure: Experimental procedure for kinetic analyses: Enzymatic reactions were carried out in a reaction containing 50 mM NaH2PO4, 100 mM NaCl and 0.1% BSA (pH 7.0) using 2 mM 4-Methylumbelliferyl N-acetyl-β-D-glucosaminide dihydrate (Sigma M2133) dissolved in ddH2O, as a substrate. The amount of purified human O-GlcNAcase enzyme used in the reaction was 0.7 nM. Test compound of varying concentrations was added to the enzyme prior to initiation of the reaction. The reaction was performed at room temperature in a 96-well plate and was initiated with the addition of substrate. The production of fluorescent product was measured every 60 sec for 45 min with a Tecan Infinite M200 plate-reader with excitation at 355 nm and emission detected at […], with 4-Methylumbelliferone (Sigma M1381) used to produce a standard curve. The slope of product production was determined for each concentration of compound tested and plotted, using standard curve fitting algorithms for sigmoidal dose response curves. The values for a four parameter logistic curve fit of the data were determined.
KI values were determined using the Cheng-Prusoff equation; the Km of O-GlcNAcase for substrate was 0.2 mM.
On to `CNC(=O)[C@H]1N[C@H](CO)[C@@H](O)[C@H](O)[C@@H]1O` [(2S,3R,4S,5R,6R)-3,4,5-trihydroxy-6-(hydroxymethyl)-N-methylpiperidine-2-carboxamide (hydrochloride salt), reference compound], for which the affinity corresponds to a Ki of 165 nM.

The compound `CNC(=O)[C@@H]1[C@@H](O)[C@@H](O)[C@H](O)[C@@H](CO)N1C` [Example 1, (2S,3R,4S,5R,6R)-3,4,5-trihydroxy-6-(hydroxymethyl)-N,1-dimethylpiperidine-2-carboxamide hydrochloride] returned a Ki of 1470 nM.

Regarding `CNC(=O)[C@@H]1[C@@H](O)[C@@H](O)[C@H](O)[C@@H](CO)N1C/C=C/c1ccc(-c2ccccc2)cc1` [Example 2, (2S,3R,4S,5R,6R)-1-((E)-3-([1,1′-biphenyl]-4-yl)allyl)-3,4,5-trihydroxy-6-(hydroxymethyl)-N-methylpiperidine-2-carboxamide], affinity was put at a Ki of 1810 nM.

Turning to `CNC(=O)[C@@H]1[C@@H](O)[C@@H](O)[C@H](O)[C@@H](CO)N1CCCc1ccc(-c2ccccc2)cc1` [Example 3, (2S,3R,4S,5R,6R)-1-(3-([1,1′-biphenyl]-4-yl)propyl)-3,4,5-trihydroxy-6-(hydroxymethyl)-N-methylpiperidine-2-carboxamide], the affinity corresponds to a Ki of 9.4 nM.

Turning to `CCNC(=O)[C@H]1N[C@H](CO)[C@@H](O)[C@H](O)[C@@H]1O` [Example 4, (2S,3R,4S,5R,6R)-N-ethyl-3,4,5-trihydroxy-6-(hydroxymethyl)piperidine-2-carboxamide hydrochloride], the affinity, expressed as Ki, was 3300 nM.

With `CNC(=O)[C@@H]1[C@@H](O)[C@@H](O)[C@H](O)[C@@H](CO)N1CCCc1ccccc1` [Example 5, (2S,3R,4S,5R,6R)-3,4,5-trihydroxy-6-(hydroxymethyl)-N-methyl-1-(3-phenylpropyl)piperidine-2-carboxamide], the Ki is 1700 nM.

In turn, `CCNC(=O)[C@@H]1[C@@H](O)[C@@H](O)[C@H](O)[C@@H](CO)N1CCCc1ccccc1` [Example 6, (2S,3R,4S,5R,6R)-N-ethyl-3,4,5-trihydroxy-6-(hydroxymethyl)-1-(3-phenylpropyl)piperidine-2-carboxamide] showed an inhibition constant (Ki) of 2500 nM.

For the compound `CNC(=O)[C@@H]1[C@@H](O)[C@@H](O)[C@H](O)[C@@H](CO)N1CCCCc1ccccc1` [Example 7, (2S,3R,4S,5R,6R)-3,4,5-trihydroxy-6-(hydroxymethyl)-N-methyl-1-(4-phenylbutyl)piperidine-2-carboxamide], the Ki is 252 nM.

For the compound `CNC(=O)[C@@H]1[C@@H](O)[C@@H](O)[C@H](O)[C@@H](CO)N1CCCCC(C)C` [Example 8, (2S,3R,4S,5R,6R)-3,4,5-trihydroxy-6-(hydroxymethyl)-N-methyl-1-(5-methylhexyl)piperidine-2-carboxamide], the Ki was 620 nM.

System in a further series: not listed separately
In words: Determination of apparent permeability (Papp), bi-directional transport in LLC-PK1 cells. The series is classed as in vitro ADME. To be noted: pig, test compound 1 μM, t=3 h, average of A to B and B to A. How it is done: Bi-directional transport is evaluated in LLC-PK1 cells in order to determine apparent permeability (Papp). LLC-PK1 cells can form a tight monolayer and therefore can be used to assess vectorial transport of compounds from basolateral to apical (B→A) and from apical to basolateral (A→B).
To determine Papp, LLC-PK1 cells are cultured in 96-well transwell culture plates (Millipore). Solutions containing the test compounds (1 μM) are prepared in Hank's Balanced Salt Solution with 10 mM HEPES. Substrate solution (150 μL) is added to either the apical (A) or the basolateral (B) compartment of the culture plate, and buffer (150 μL) is added to the compartment opposite to that containing the compound. At t=3 h, 50 μL samples are removed from both sides of monolayers dosed with test compound and placed in 96 well plates, scintillant (200 μL) or internal standard (100 μL labetolol 1 μM) is added to the samples and concentration is determined by liquid scintillation counting in a MicroBeta Wallac Trilux scintillation counter (Perkin Elmer Life Sciences, Boston, Mass.) or by LCMS/MS (Applied Biosystems SCIEX API 5000 triple quadruple mass spectrometer). [^3H]Verapamil (1 μM) is used as the positive control. The experiment is performed in triplicate.
The apparent permeability, Papp, is calculated by the following formula for samples taken at t=3 h: […]
Consider `CNC(=O)[C@@H]1[C@@H](O)[C@@H](O)[C@H](O)[C@@H](CO)N1CCCc1ccc(-c2ccccc2)cc1` [Example 3, (2S,3R,4S,5R,6R)-1-(3-([1,1′-biphenyl]-4-yl)propyl)-3,4,5-trihydroxy-6-(hydroxymethyl)-N-methylpiperidine-2-carboxamide], for which the Papp at 3 h, 1 μM was 3 ×10⁻⁶ cm/s.
